Measured values published in patent US12599584B2, “Indoline derivatives, compositions comprising them and uses thereof” (Yissum Research Development Company of The Hebrew …, priority 2016, dated 2026).

What was measured:
Caspase 3 = Caspase 3 activity in RAW macrophage 264.7 cells exposed to H2O2; type: cell-based, mouse; details: 1×10^−13M
Description: Oxidative stress can cause apoptosis, a form of cell suicide mediated by a cascade of proteolytic enzymes called caspases (cysteinyl aspartate-specific proteases). Caspase 3 is one of a number of effector caspases. Its activity was measured by means of a luminescent assay (Caspase-Glo 3/7 Assay Promega Ltd). […] The medium was aspirated 90 min later, 100 μL of DMEM was added to each well and the plates kept in an incubator overnight. Caspase-GloR Reagent (100 μL) was added to each well and the contents gently mixed using a plate shaker at 300-500 rpm for 30 sec. The plates were left at room temperature for 30 min and then luminescence of each sample was measured in a plate-reading luminometer (Cytation 3).

[1] = test system: IL-6 in human macrophages; experiment: IL-6 in human macrophages after elevation by LPS (ELISA); type: cell-based; details: 24 h after LPS; 1 × 10^−9 M
Description: (§1) Blood (20 ml was collected from healthy human subjects on the day of the experiment in anti-coagulant tubes and diluted in PBS 1:1. Ficol (12 mL) was added into the bottom of the tube, centrifuged slowly for 30 min at 1400 g and peripheral blood mononuclear cells (PBMCs) were separated. Monocytes were isolated by addition of 15 ml of MACS buffer. After centrifugation at 1400 g for 10 min at 4° C., the supernatant fluid was removed, monocytes were isolated by means of a MACS-Monocyte isolation kit (cat: 130-091-153) and incubated at 4-8° C. for 10 min Monocytes (500,000/well) were seeded in 12 multi well plate and cultured for 7 days in RPMI+L-Glutamin+FBS (10%) and PenStrep and h-MCSF (20 ng/mL) to convert them into macrophages. Compounds (AN1284, AN1297, AN1298, 1×10^−10 or 1×10^−9 M) were added 2 h before LPS (100 μg/mL Sigma Ltd. phenol extracted from Escherichia coli 055: B5) and incubated at 37° C., 5% CO2. TNF-α, IL-1β and IL-6 protein were detected by means of the sandwich ELISA method using an ELISA kit for human cytokines (Biolegend, San Diego, CA, USA) according to the manufacturer's instructions.

RERT/TSC1^f/f mice = experiment: Tuberous sclerosis model: tamoxifen-induced TSC1 deletion; type: in vivo, mouse
Description: RERT/TSC1^f/f mice develop kidney pathology that resembles human tuberous sclerosis (TSC). Mice bearing a floxed allele of TSC1 were purchased from Jackson laboratories and crossed to homozygosity to the RERT strain, provided by Dr. Mariano Barbacid, Spanish National Cancer Research Centre. The RERT strain contains an IRES-Cre-ERT2 knock in into the large subunit of RNA polymerase II, allowing an inducible deletion in all cell types by administration of tamoxifen. […] The mice were injected sc with tamoxifen to induce TSC1 deletion and its effect assessed on body weight and immunological parameters associated with inflammation. AN1284 (1 μmole/kg of the 2HCl salt) was injected sc, twice daily in a group of 5 female mice 5 weeks after tamoxifen challenge. An untreated group of 5 tamoxifen challenged mice served as controls. The mice were weighed once weekly and observed for development of lethargy and eye closure.

[2] = test system: NO release from LPS-activated RAW cells; experiment: Release of NO from LPS-activated RAW 264.7 macrophages (Griess); type: cell-based, mouse; details: N-isopropylpropylamine versus propylamine side chain
Description: (§2) Anti-inflammatory activity was measured in RAW 264.7 macrophage cells. The cells were seeded at density of 5×10^4 per well in 48-well culture plates and grown overnight in DMEM as described above. The compounds were added to give final concentrations ranging from 1×10^−12-1×10^−6 M of the respective salts per well. The cells were incubated for 2 h at 37° C. prior to stimulation with lipopolysaccharide (LPS, 2.5 μg/mL) from Escherichia coli (Sigma-Aldrich). Supernatants were harvested after 8 h for detection of TNF-α and after 24 h for nitric oxide (NO). NO production was detected by a colourimetric method using Griess reagent (0.2% naphthylenediamine dihydrochloride, and 2% sulfanilamide in 5% phosphoric acid), which measures the concentration of nitrite, a stable metabolite produced from NO. TNF-α protein was detected by means of the sandwich ELISA method using an ELISA kit (Biolegend, San Diego, CA, USA) according to the manufacturer's instructions.

[3] = test system: TNF-α release from LPS-activated RAW cells; experiment: Release of TNF-α from LPS-activated RAW 264.7 macrophages (ELISA); type: cell-based, mouse; details: N-isopropylpropylamine versus propylamine side chain
Description: as §2

LPS-injected mice = experiment: Pro-inflammatory cytokine proteins in tissues of mice injected with LPS; type: in vivo, mouse; details: sc, 2-3 doses, 15 min before LPS 10 mg/kg ip; 4 h after LPS
Description: Male Balb/c OlaHsd mice (aged 7-8 weeks) were injected subcutaneously (sc) with saline, or with AN1279, AN1283, AN1284, AN1287 and AN1298 at doses that contain approximately the equivalent amount of the base. LPS (10 mg/kg) was given by intraperitoneal injection 15 min later. The mice were sacrificed 4 h later, which was previously shown to be the optimal time for elevation of cytokines in the spleen and brain. The spleen, brain and liver were rapidly removed and frozen in liquid nitrogen and stored at −80° C. until use. A piece of the cortex was taken for gene analysis of cytokines. Blood was collected into heparinized tubes and plasma separated by centrifugation. For measurement of cytokine protein, tissues were weighed and diluted in PBS containing 0.8% NaCl, 0.144% NaHPO4, 0.024% KH2PO4 and protease inhibitor cocktail (Sigma) and homogenised in an Ultra-TURRAX® homogeniser at a speed of 24,000 rpm and centrifuged at 14000 g for 15 min at 4° C. Cytokines were detected by means of Elisa kits (Biolegend) and protein concentration was determined by a bicinchoninic acid protein assay kit (Thermo Scientific, IL, USA).

[4] = test system: C57B1/6 mice with STZ-induced diabetes; experiment: Diabetic nephropathy induced by streptozotocin (STZ); type: in vivo, mouse
Excerpt: The renal proximal tubule is uniquely susceptible to a variety of metabolic and hemodynamic factors associated with diabetes, predominantly to hyperglycaemia. Glucose entry into renal proximal tubular cells is insulin-independent, making these cells particularly sensitive to the deleterious effects of chronic hyperglycaemia in subjects with diabetes. To induce diabetic nephropathy, male 20, 8-week-old C57B1/6 mice were given five consecutive intraperitoneal injections of streptozotocin (STZ) (50 mg/kg per day). A control group of 10 mice was given 0.1 mol/L citrate buffer (pH 4.5). Ten days following the last injection of STZ, half the mice were treated twice daily with sc injections of AN1284 2HCl (2 μmoles/kg), or vehicle (saline) for fifteen weeks.

[5] = test system: TNF-α in human macrophages; experiment: TNF-α in human macrophages after elevation by LPS (ELISA); type: cell-based
Description: as §1, with “Compounds (AN1284, AN1297, AN1298, 1×10^−10 or 1×10^−9 M) were added 2 h before LPS (100 μg/mL Sigma Ltd. phenol extracted from Escherichia coli 055: B5) and incubated at 37° C., 5% CO2.” left out

[6] = test system: cerulein-induced mouse model; experiment: Acute pancreatitis, cerulein-induced mouse model; type: in vivo; details: for Serum amylase: 1 and 2 mg/kg sc 30 min after first cerulein injection, 4 hours; for TNF-α protein in the pancreas: 1 and 2 mg/kg sc, 4 hours after first cerulein injection
Description: The most commonly used animal model for acute pancreatitis is the cerulein-induced mouse model (Su et al., 2006). Cerulein is a cholecystokinin analogue that produces hyperstimulation of the pancreatic acinar cells at supramaximal dosage. The acute necrotizing pancreatitis produced is histopathologically similar to acute human pancreatitis (Van Acker et at, 2007). Groups of 10 Balb/C male mice weighing 24 gm were injected intraperitoneally once every hour for 4 hours with cerulean (50 μg/kg) suspended in saline. AN1297 (1 or 2 mg/kg) or resolvin D (1 mg/kg) or saline that were injected sc. 30 min after the first cerulean injection. Mice were killed by exsanguination at 4 hours after the first cerulein injection. Blood samples or measurement of amylase were obtained by direct intracardiac puncture. Pancreases were removed immediately, flash frozen in liquid nitrogen and stored −80° C. until assayed, for TNF-α protein by means of the sandwich ELISA method using an ELISA kit (Biolegend, San Diego, CA, USA) according to the manufacturer's instructions. Serum amylase activity was determined using a colorimetric assay kit (ab102523, Abcam). The values of serum amylase activity are expressed as units per litre (U/l).

[7] = 1 μmole/kg 2HCl salt sc twice daily
[8] = whole kidney homogenates of diabetic mice
[9] = listed as AN1927, Hydrochloride

NCCCN1CCc2ccccc21 [AN1264, di-p-Toluenesulfonate]
Reduction in caspase 3 activity compared with the other compounds (Caspase 3): less reduction in caspase 3 activity than the other compounds

COC(=O)CCN1CCc2ccc(OCc3ccccc3)cc21.Cc1ccc(S(=O)(=O)O)cc1 [AN1279, Methyl 3-(6-(Benzyloxy)indolin-1-yl)propanoate p-Toluenesulfonate]
Reduction in caspase 3 activity compared with the other compounds (Caspase 3): less reduction in caspase 3 activity than the other compounds

CC(C)NCCCN1CCc2ccccc21.Cc1ccc(S(=O)(=O)O)cc1 [AN1284, 3-(Indolin-1-yl)-N-isopropylpropan-1-amine di-p-Toluenesulfonate]
Reduction (%) ± STD compared to LPS alone, IL-6 [1]: 64.7 ± 14.8% | MDSCs in the bone marrow and spleen (flow cytometry) (RERT/TSC1^f/f mice; [7]): significant reduction | T cells in the bone marrow and spleen (flow cytometry) (RERT/TSC1^f/f mice; [7]): significant reduction | Body weight decrease (RERT/TSC1^f/f mice; 1 μmole/kg 2HCl salt sc twice daily, versus untreated tamoxifen-challenged mice): much smaller decrease | Development of severe lethargy (RERT/TSC1^f/f mice; 1 μmole/kg of the 2HCl salt sc twice daily, from 5 weeks after tamoxifen, five weeks of treatment): none of the AN1284-treated mice developed severe lethargy | Renal cysts (RERT/TSC1^f/f mice; kidney histology): clear reduction | Cytokine levels of TNF-α and IL-6 in spleen and liver (RERT/TSC1^f/f mice; versus untreated group): significant reduction | Decrease of the concentration that inhibited significantly the release of NO [2]: 10 fold | Decrease of the concentration that inhibited significantly the release of TNF-α [3]: 10 fold | IL-6 protein in the brain (LPS-injected mice): reduction | IL-6 protein in the liver (LPS-injected mice): reduction | Degree of hyperglycaemia ([4]; 2 μmoles/kg sc twice daily, fifteen weeks): did not affect | Renal mRNA expression level of fibronectin 1 ([4]; 0.5 mg/kg, sc): significantly normalised | Total fat mass ([4]; AN1284 2HCl 2 μmoles/kg sc twice daily for fifteen weeks, diabetic mice): further reduction | Blood urea nitrogen levels ([4]; chronic treatment): normalizing | Glomerular cross-sectional area ([4]; chronic treatment): normalizing | Urine albumin-to-creatinine ratio ([4]; chronic treatment): normalizing | Increased glomerular space area and mesangial expansion ([4]; versus diabetic-vehicle-treated animals): completely normalised | Kidney-to-body weight ratio ([4]; versus diabetic-vehicle-treated group): significantly reduced | mRNA expression level of IP-10 [4, 8]: significantly reduced | mRNA expression level of TIMP1 [4, 8]: significantly reduced | mRNA expression level of collagen-1 [4, 8]: significantly reduced | mRNA expression level of collagen-3 [4, 8]: significantly reduced | mRNA expression level of kidney injury marker lipocalin 2 [4, 8]: significantly reduced | Reduction (%) ± STD compared to LPS alone, TNF-α ([5]; 6 h after LPS, 1 × 10^−9 M): 55.3 ± 9.8% | Reduction (%) ± STD compared to LPS alone, TNF-α ([5]; 12 h after LPS, 1 × 10^−10 M): 41.1 ± 5.4% | Reduction (%) ± STD compared to LPS alone, TNF-α ([5]; 12 h after LPS, 1 × 10^−11 M): 7.1 ± 5.8 % | Reduction (%) ± STD compared to LPS alone, TNF-α ([5]; 24 h after LPS, 1 × 10^−9 M): 71.4 ± 9.7%

COC(=O)CCN1CCc2cc(OC)ccc21.Cl [AN1297, Methyl 3-(5-Methoxyindolin-1-yl)propanoate Hydrochloride]
Reduction (%) ± STD compared to LPS alone, IL-6 [1]: 62.4 ± 16.5% | Serum amylase ([6]; Hydrochloride): decreased significantly | Serum amylase [6, 9]: Dose related reduction | TNF-α protein in the pancreas ([6]; Hydrochloride): dose-dependently reduced | TNF-α protein in the pancreas [6, 9]: Dose related reduction | IL-6 protein in the brain (LPS-injected mice): reduction | IL-6 protein in the liver (LPS-injected mice): reduction | Reduction (%) ± STD compared to LPS alone, TNF-α ([5]; 6 h after LPS, 1 × 10^−9 M): 55.7 ± 11.5% | Reduction (%) ± STD compared to LPS alone, TNF-α ([5]; 12 h after LPS, 1 × 10^−10 M): 25.1 ± 10.9% | Reduction (%) ± STD compared to LPS alone, TNF-α ([5]; 12 h after LPS, 1 × 10^−11 M): 22.0 ± 7.2% | Reduction (%) ± STD compared to LPS alone, TNF-α ([5]; 24 h after LPS, 1 × 10^−9 M): 71.1 ± 8.9%
